For 59 molecules, RP-LC retention time results are on record in the METLIN SMRT retention time set (Domingo-Almenara et al. 2019).

This data set in a line: gradient 5% acetonitrile 3 min, to 50% in 2 min, to 85% in 15 min, held 3 min, 100 µL/min. The conditions noted are these: column: Zorbax Extend-C18 2.1 x 50 mm; eluents: water / acetonitrile, 0.1% formic acid. In a few lines: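 In both positive and negative ionization mode, a quadrupole time-of-flight mass spectrometer coupled to HPLC analyzed pure standards run in mixtures of ~100 molecules. The Zorbax Extend-C18 column (2.1 × 50 mm, 1.8 μm) was operated at 100 μL/min with water and acetonitrile, each containing 0.1% formic acid. The dead volume was 40 μL and the dwell volume 900 μL. Retention time came from adduct peaks that were computationally picked and individually inspected by hand.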
Consider `O=C(Cn1cnc2ccccc2c1=O)N1CCCC1`, for which the RP-LC retention time turned out to be 612 s.

In turn, `O=S(=O)(Nc1ccc(F)cc1)c1ccc2c(c1)-c1oncc1CO2` returned an RP-LC retention time of 866 s.

`CCc1cccc(NC(=O)Cn2c(C)nc3c(sc4nc(-c5ccccc5)ccc43)c2=O)c1` yielded an RP-LC retention time of 1170 s.

In turn, `CCn1cc(CCNC(=O)c2ccc(Br)cc2)c2cccnc21` came in with an RP-LC retention time of 766 s.

For `CN1CC(=O)NC(c2ccccc2Br)C1=O` (centres undefined), the RP-LC retention time amounted to 550 s.

Molecule `COCCn1cc2c3c(cccc31)CN(C(=O)Nc1ccc(OC)cc1)CC2` had an RP-LC retention time of 833 s.

With `CC(C)n1cc(S(=O)(=O)Nc2cc(F)ccc2Cl)c2cccnc21`, the RP-LC retention time is 989 s.

`COc1ccc(N2CCN(C(=O)c3c(OC)cc(=O)n4c3CCCC4)CC2)cc1` showed an RP-LC retention time of 660 s.

As to `CCC(=O)N1CCOc2ccc(N(C)C)cc2C1`, the RP-LC retention time came out at 570 s.

`CCN(C(=O)CC(C)S(=O)(=O)c1ccc2c(c1)CCN2C(=O)C1CC1)c1ccccc1` (centres undefined) displayed an RP-LC retention time of 867 s.

With `COc1ccc(-c2csc(NC(=O)Cc3csc(-c4ccccc4)n3)n2)cc1`, the RP-LC retention time is 1090 s.

In the case of `COc1ccc(NC(=O)Cn2nc(N3CCCC3)c3ccccc3c2=O)cc1`, the RP-LC retention time turned out to be 847 s.

For the molecule `CCn1c(=O)n(Cc2ccccc2Cl)c(=O)c2cnc(-c3ccc(OC)cc3)nc21`, the RP-LC retention time came out at 1010 s.

On to `COc1cccc(-c2noc(Cn3ccn(-c4cc(C)cc(C)c4)c(=O)c3=O)n2)c1OC`, for which the RP-LC retention time is 870 s.

The molecule `CCN(Cc1cccnc1)C(=O)CN(c1ccc(OC)nc1)S(=O)(=O)c1ccccc1C` showed an RP-LC retention time of 734 s.

In turn, `COC(=O)N1CCN(CCNC(=O)C2(c3ccc(Cl)cc3)CCCC2)CC1` showed an RP-LC retention time of 592 s.

In turn, `COC(=O)C1=C(C)NC(C)=C(C(=O)OC)C1c1cccc(NC(=O)NCCCN2CCC(c3cccc(OC)c3)CC2)c1` registered an RP-LC retention time of 833 s.

On to `COCCCNC(=O)C1c2ccccc2C(=O)N1CCc1ccc(C)cc1` (centres undefined), for which the RP-LC retention time stood at 787 s.

In turn, `CCCc1noc(-c2ccc3nnc(CC(=O)N4CCSCC4)n3c2)n1` displayed an RP-LC retention time of 755 s.

As for `CCN1C(=O)CCc2cc(NS(=O)(=O)c3c(C)cccc3Cl)ccc21`, the RP-LC retention time is 846 s.

With `CCN(C(=O)CCCC(=O)OC)c1nc(-c2ccc(C)cc2)cs1`, the RP-LC retention time amounted to 1180 s.

Molecule `CC(=O)N1CCc2cc(-c3ccc(C(=O)NCCN4CCCCCC4)cc3)ccc21` displayed an RP-LC retention time of 576 s.

Turning to `CSc1ccccc1CN1CCC(CNC(=O)C2(c3ccccc3)CCOCC2)CC1`, the RP-LC retention time was 588 s.

Regarding `O=C(c1cn2nc(Cl)ccc2n1)N1CCN(c2ccccc2F)CC1`, the RP-LC retention time is 836 s.

Molecule `CCC(=O)NCc1csc(C2CCCN(C(=O)COc3ccccc3)C2)n1` (centres undefined) gave an RP-LC retention time of 710 s.

Consider `COc1cccc(NC(=O)NC2CCN(c3cc(C)cc(C)c3)C2=O)c1` (centres undefined), for which the RP-LC retention time was determined as 870 s.

As for `CCCN(C(C)=O)c1nc(-c2ccc(C3CCCCC3)cc2)cs1`, the RP-LC retention time was found to be 748 s.

`COc1ccc(-c2cc3n(n2)C(NCc2cccs2)CNC3=O)cc1` (centres undefined): the RP-LC retention time was found to be 825 s.

`O=S(=O)(NC1CCCCC1n1cc(-c2ccccc2)nn1)c1ccccc1` (centres undefined): the RP-LC retention time stood at 789 s.

Molecule `CC(=O)Nc1ccc(NC(=O)CCNc2c(-c3ccc(F)cc3)nc3cnccn23)cc1` displayed an RP-LC retention time of 630 s.

`CCOc1nc2ccccc2nc1N1CCCC(C(=O)Nc2cccc(C(F)(F)F)c2)C1` (centres undefined) displayed an RP-LC retention time of 1370 s.

`CC(=O)c1ccc2c(c1)[C@@H]1C=CC[C@@H]1[C@H](c1cc3c(cc1Br)OCO3)N2` came in with an RP-LC retention time of 1140 s.

In turn, `O=C(NCCN1CCOCC1)C1CCN(c2cnc(N3CCSCC3)nc2)CC1` registered an RP-LC retention time of 590 s.

As for `Cn1c(N2CCC(C(=O)NC3CCN(Cc4ccccc4)CC3)CC2)cc(=O)n(C)c1=O`, the RP-LC retention time came out at 578 s.

For the molecule `COc1cc(NCc2ccccc2O)c2ncccc2c1`, the RP-LC retention time is 758 s.

Take `CCc1ccc(NC(=O)Cn2c(N)nc(CC)c(C)c2=O)cc1`: the RP-LC retention time turned out to be 639 s.

`CC(=O)N1c2ccc(S(=O)(=O)N3CCCC3C(=O)Nc3nc4ccc(C)cc4s3)cc2CC1C` (centres undefined) yielded an RP-LC retention time of 935 s.

Consider `O=C(c1cn(-c2cc(N3CCCCC3)ncn2)cn1)N1CCC2(CC1)OCCO2`, for which the RP-LC retention time amounted to 750 s.

In turn, `CCCc1cc(C2CCCN2C(=O)c2ccc(OC)c(OC)c2)no1` (centres undefined) displayed an RP-LC retention time of 793 s.

Consider `COc1ccc(C(=O)N2CCc3cc(-c4csc(C)n4)ccc32)cc1OC`, for which the RP-LC retention time was 862 s.

For `Cc1ccc(C)c(N2CCN(c3ccnc(SCC(=O)Nc4c(C)cccc4Cl)n3)CC2)c1`, the RP-LC retention time is 942 s.

`Cc1ccc(Sc2nccnc2N2CCCC(C(=O)Nc3cc(C)cc(C)c3)C2)cc1` (centres undefined) registered an RP-LC retention time of 1150 s.

Turning to `CCOc1cccc(CNC(=O)c2nnc(-c3ccc(S(=O)(=O)N(C)C)cc3)o2)c1`, the RP-LC retention time is 893 s.

Turning to `CCCN(C(=O)c1ccc2c(c1)OCO2)c1nc(-c2ccccc2)cs1`, the RP-LC retention time came to 1260 s.

For the molecule `O=C(c1cc(-c2ccccc2)n[nH]1)N1C[C@H]2CNC(=O)[C@]23CCCC[C@@H]13`, the RP-LC retention time is 683 s.

The molecule `CCn1cc(-c2nc(C)c(C(=O)Nc3ccc(C)cc3)s2)c2cccnc21` yielded an RP-LC retention time of 784 s.

Molecule `COc1ccc(NC(=O)c2c(O)c3cccnc3n(-c3ccc(F)cc3)c2=O)cc1` had an RP-LC retention time of 1250 s.

`COc1ccc(-c2noc(Cn3ccn(-c4ccc(Cl)cc4)c(=O)c3=O)n2)cc1OC` yielded an RP-LC retention time of 803 s.

In turn, `CCOc1ccc(NC(=O)NCC(c2cccnc2)c2cn(C)c3ccccc23)cc1` (centres undefined) returned an RP-LC retention time of 703 s.

Consider `O=C(C1=C(O)C(=O)N(CCCn2ccnc2)C1c1ccc(F)cc1)c1cc2ccccc2o1` (centres undefined), for which the RP-LC retention time stood at 622 s.

`CCCn1ncc(N2CCC(C(=O)N3CCOCC3)CC2)cc1=O` displayed an RP-LC retention time of 619 s.

Consider `Cc1ccccc1-c1ccc(N2CCC(C(=O)NCc3ccco3)CC2)nn1`, for which the RP-LC retention time worked out at 605 s.

Turning to `COC(=O)c1sccc1NC(=O)N1CCCC1c1noc(COc2ccc(F)cc2)n1` (centres undefined), the RP-LC retention time is 1040 s.

As for `COc1ccc(-c2nnc(-c3ccc(C)c(S(=O)(=O)NC(C)C(=O)O)c3)o2)cc1OC` (centres undefined), the RP-LC retention time is 748 s.

Molecule `CCOc1cccc(-c2noc(Cn3ccnc3)n2)c1` registered an RP-LC retention time of 635 s.

In the case of `COc1cccc(-c2noc(CN3C(=O)COc4ccccc43)n2)c1OC`, the RP-LC retention time is 908 s.

Molecule `COc1ccc(-c2nnc(-c3ccc(Cl)c(S(=O)(=O)N4CCOCC4)c3)o2)cc1OC` showed an RP-LC retention time of 884 s.

Take `Cc1cc(N2CCCCC2)nc(N2CCN(C(=O)C3CCCC3)CC2)n1`: the RP-LC retention time was 713 s.

Turning to `O=C(Cn1cnc2c(sc3nc(-c4ccccc4)ccc32)c1=O)NCc1ccc(F)cc1`, the RP-LC retention time is 982 s.
